In publication PMC11117661, “Development of a Novel In Silico Classification Model to Assess Reactive Metabolite Formation in the Cysteine Trapping Assay and Investigation of Important Substructures” (Biomolecules, 2024):

Assay: not given
Conditions: human, 2 h, 20 µM, pH 7.4

Compound | RI integrated area [count]
Nc1c2c(nc3ccccc13)CCCC2 [Tacrine] | 243.5

Assay: cysteine trapping assay ([35S]cysteine, HPLC with radiomatic detector) for reactive metabolites
Conditions: human liver microsome 2 mg/mL, L-[35S]-Cysteine, NADPH, 37 °C, 2 h
Procedure: The reagents for making the reaction solution were phosphate buffer (pH 7.4; 100 mM), ethylenediaminetetraacetic acid (EDTA; 1 mM) (Tokyo Kasei, Tokyo, Japan), MgCl2 hexahydrate (Fuji Film Wako Co., Ltd., Osaka, Japan, reagent special grade; 3 mM), glucose-6-phosphate (G6P; 5 mM) (Roche, Basel, Switzerland), G6P dehydrogenase (G6PDH; 1 IU) (Oriental Yeast Co., Ltd., Tokyo, Japan), human liver microsome solution (Xenotech, Kansas City, MO, USA; 2 mg/mL), and L-[35S]-Cysteine (PerkinElmer Japan Co., Ltd., Kanagawa, Japan; 3.7 MBq/mL), which were prepared using ultrapure water. The evaluation compound was dissolved in dimethyl sulfoxide (DMSO) and its concentration was adjusted to 4 mM. This was used as a substrate solution.
On ice, 239 µL of the reaction solution was dispensed into a glass tube and then 1.25 µL of the substrate solution was added, mixed, and placed in a water bath (PERSONAL-11, Taitec Co., Ltd., Saitama, Japan) at 37 °C. After pre-incubation for 5 min, 10 µL of 25 mM nicotinamide adenine dinucleotide phosphate (NADPH) (Roche, Basel, Switzerland) solution was added and mixed to a final concentration of 20 µM to initiate a metabolic reaction and incubated in a water bath at 37 °C for 2 h. After incubation, 500 µL of acetonitrile was added and mixed, and the tube was chilled on ice to deproteinize, after which 50 µL of 250 mM GSH solution was added and mixed to stop the reaction, and centrifuged (approximately 1500× g, 4°C, 10 min, CF16RXII, Hitachi, Ltd., Tokyo, Japan). After centrifugation, 750 µL of the supernatant was transferred to a new glass tube and concentrated by vacufugation (VC-96N, Taitec Co., Ltd., Saitama, Japan) for 2 h. After concentrating the solution, we added 100 µL of the redissolving solution (40% methanol solution), mixed it with a vortex (IS-MBI minimixer, Ikeda Rika Co., Ltd., Tokyo, Japan) to redissolve, and then the sample was placed in a filter tube [Merck Millipore, Darmstadt, Germany] and centrifuged (approximately 5000× g, room temperature, 10 min).
Both High Performance Liquid Chromatography (HPLC) (Nexera XR, Shimadzu Corporation, Kyoto, Japan) and a radiomatic detector (Radiomatic 610TR, PerkinElmer Japan Co., Ltd.) were used to analyze the prepared samples. The 35S content was detected by running the separated sample via the 45-min analytical method through a radiomatic detector. The mobile phase was composed of a gradient of 0.1% (v/v) formic acid/water and 0.1% (v/v) formic acid/acetonitrile, and the chromatographic separation was performed using a column (Synergi 4 μm Hydro-RP 80A 150 × 3.00 mm, Phenomenex, Torrance, CA, USA).
Considering this, the amount of covalent binding in microsomes in the in vitro covalent binding test of 50 pmol/g or more was judged as a risk. The threshold of the total RI integrated area in cysteine trapping at that time was about 1000 counts. Therefore, we labeled compounds with more than 1000 counts of RI integrated area as positive, and those with less than 1000 counts as negative.

Compound | RI integrated area [count]
Cc1c(N(C)C)c(=O)n(-c2ccccc2)n1C [Aminopyrine] | 44.3
CCc1oc2ccccc2c1C(=O)c1cc(Br)c(O)c(Br)c1 [Benzbromarone] | 4516.4
Cn1c(=O)c2c(ncn2C)n(C)c1=O [Caffeine] | 22.4
CC(C)C(=O)Nc1ccc([N+](=O)[O-])c(C(F)(F)F)c1 [Flutamide] | 680.4
COc1ccc2c(c1)c(CC(=O)O)c(C)n2C(=O)c1ccc(Cl)cc1 [Indomethacin] | 89.0
C[C@H]1COc2c(N3CCN(C)CC3)c(F)cc3c(=O)c(C(=O)O)cn1c23 [Levofloxacin] | 150.3
O=C1NC(=O)C(c2ccccc2)(c2ccccc2)N1 [Phenytoin] | 34.7
CCc1ccc(CCOc2ccc(CC3SC(=O)NC3=O)cc2)nc1 (stereo not shown) [Pioglitazone] | 105.8
CC[C@H](C)C(=O)O[C@H]1C[C@H](O)C=C2C=C[C@H](C)[C@H](CC[C@@H](O)C[C@@H](O)CC(=O)O)[C@H]21 [Pravastatin] | 25.4
CC(C)c1nc(CN(C)C(=O)N[C@H](C(=O)N[C@@H](Cc2ccccc2)C[C@H](O)[C@H](Cc2ccccc2)NC(=O)OCc2cncs2)C(C)C)cs1 [Ritonavir] | 593.9
O=C(O)COc1ccc(C(=O)c2cccs2)c(Cl)c1Cl [Tienilic acid] | 3783.7
Cc1c(C)c2c(c(C)c1O)CCC(C)(COc1ccc(CC3SC(=O)NC3=O)cc1)O2 (stereo not shown) [Troglitazone] | 521.7
COc1cc(C(=O)NS(=O)(=O)c2ccccc2C)ccc1Cc1cn(C)c2ccc(NC(=O)OC3CCCC3)cc12 [Zafirlukast] | 263.4
Cc1cc(CC(=O)O)n(C)c1C(=O)c1ccc(Cl)cc1 [Zomepirac] | 217.5

Further lines, results first:

RI integrated area [count] | Compound
346.7 | CCN(CC)Cc1cc(Nc2ccnc3cc(Cl)ccc23)ccc1O [Amodiaquine]
61.8 | NC(=O)N1c2ccccc2C=Cc2ccccc21 [Carbamazepine]
708.2 | COC(=O)[C@H](c1ccccc1Cl)N1CCc2sccc2C1 [Clopidogrel]
1230.1 | O=C(O)Cc1ccccc1Nc1c(Cl)cccc1Cl [Diclofenac]
153.8 | CNCCC(Oc1ccc(C(F)(F)F)cc1)c1ccccc1 (stereo not shown) [Fluoxetine]
3667.2 | CC(C)NCC(O)COc1cccc2ccccc12 (stereo not shown) [Propranolol]
1593.7 | CN(CCOc1ccc(CC2SC(=O)NC2=O)cc1)c1ccccn1 (stereo not shown) [Rosiglitazone]
162.1 | CC/C(=C(\c1ccccc1)c1ccc(OCCN(C)C)cc1)c1ccccc1 [Tamoxifen]

Same assay, conditions: threshold area 1000

Compound | outcome in the cysteine trapping assay
CCc1ccc(CCOc2ccc(CC3SC(=O)NC3=O)cc2)nc1 (stereo not shown) [Pioglitazone] | negative
Cc1c(C)c2c(c(C)c1O)CCC(C)(COc1ccc(CC3SC(=O)NC3=O)cc1)O2 (stereo not shown) [Troglitazone] | negative
